Reference: paper doi:10.1101/2022.06.02.494630v1 (biorxiv, 2022)

How the values were obtained:
PfPHB1 = PfPHB1 (Plasmodium falciparum, UniProt Q8IBC3); experiment: biochemical
PfPHB2 = PfPHB2 (Plasmodium falciparum, UniProt Q8IJP8); experiment: biochemical
Sequence of PfPHB2 (Q8IJP8 1-304): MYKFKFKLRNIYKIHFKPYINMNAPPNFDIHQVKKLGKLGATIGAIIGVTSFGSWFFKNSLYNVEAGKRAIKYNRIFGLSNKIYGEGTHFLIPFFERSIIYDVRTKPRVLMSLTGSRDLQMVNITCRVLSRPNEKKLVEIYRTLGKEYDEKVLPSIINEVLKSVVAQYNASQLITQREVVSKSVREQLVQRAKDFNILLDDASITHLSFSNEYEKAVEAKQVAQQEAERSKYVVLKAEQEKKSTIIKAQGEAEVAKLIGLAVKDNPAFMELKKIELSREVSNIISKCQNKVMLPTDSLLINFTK

Sequence of PfPHB1 (Q8IBC3 1-272): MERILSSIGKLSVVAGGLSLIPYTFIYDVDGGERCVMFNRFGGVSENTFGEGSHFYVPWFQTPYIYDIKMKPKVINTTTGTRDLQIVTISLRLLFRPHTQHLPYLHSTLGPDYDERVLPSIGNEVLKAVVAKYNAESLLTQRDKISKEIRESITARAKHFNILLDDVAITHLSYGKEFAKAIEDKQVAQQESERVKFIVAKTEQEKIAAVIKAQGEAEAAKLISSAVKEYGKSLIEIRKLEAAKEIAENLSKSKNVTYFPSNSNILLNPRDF

## COc1ccc([C@@]23Oc4cc(OC)cc(OC)c4[C@]2(O)[C@H](O)[C@H](C(=O)N(C)C)[C@H]3c2ccccc2)cc1 [Roc-A]
PfPHB1
  Kd: 1.37 ± 0.6 µM
PfPHB2
  Kd: 0.683 ± 0.021 µM
